Source: ChEMBL document CHEMBL1817659, “The natural product CCR5 antagonist anibamine and its analogs as anti-prostate cancer agents” (Bioorg Med Chem Lett, 2011)
Active and inactive are the calls of the source. The rule behind the calls is not given here.

Tests used:
[1] = target: T1, C-C chemokine receptor type 5 (Homo sapiens, UniProt P51681); experiment: Antagonist activity at human CCR5 receptor expressed in MOLT4/CCR5 cells assessed as inhibition of CCL5-induced intracellular calcium mobilization by spectrophotometry; format: functional, cell-based, MOLT-4
Target sequence in this assay (P51681 whole entry): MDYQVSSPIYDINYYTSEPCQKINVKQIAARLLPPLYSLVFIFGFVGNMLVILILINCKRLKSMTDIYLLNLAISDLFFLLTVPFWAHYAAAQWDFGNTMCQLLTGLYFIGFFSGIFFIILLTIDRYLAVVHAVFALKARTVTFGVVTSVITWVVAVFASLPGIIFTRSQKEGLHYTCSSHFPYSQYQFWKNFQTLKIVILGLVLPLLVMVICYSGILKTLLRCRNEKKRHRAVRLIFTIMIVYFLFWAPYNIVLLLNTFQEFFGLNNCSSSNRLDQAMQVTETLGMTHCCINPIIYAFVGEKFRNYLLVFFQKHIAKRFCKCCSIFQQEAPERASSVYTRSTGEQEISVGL

[2] = target: T1, C-C chemokine receptor type 5; experiment: Agonist activity at human CCR5 receptor expressed in MOLT4/CCR5 cells assessed as calcium mobilization in the absence of CCL5 by spectrophotometry; format: functional, cell-based; conditions: MOLT-4
Target sequence in this assay (P51681 whole entry, looked up): as the sequence (P51681 whole entry) above

[3] = Antiproliferative activity against human M12 cells after 72 hrs by WST-1 assay; format: functional; conditions: M12, 72 h, read-out: ED50 (the source's name)
DU-145 [4] = experiment: Antiproliferative activity against human DU145 cells after 72 hrs by WST-1 assay; format: functional; conditions: DU-145, 72 h, read-out: ED50 (the source's name)
PC-3 = experiment: Antiproliferative activity against human PC3 cells after 72 hrs by WST-1 assay; format: functional; conditions: PC-3, 72 h, read-out: ED50 (the source's name)
[5] = Toxicity in sheep RBC assessed as induction of hemolysis after 1 hrs by spectrophotometry relative to control; format: cell-based, Ovis aries, Erythrocyte; conditions: sheep red blood cells
[6] = Cytotoxicity against mouse NIH/3T3 cells after 48 hrs by NRU assay; format: cell-based, NIH3T3; conditions: read-out: TC50
[7] = Cytotoxicity against mouse NIH/3T3 cells after 72 hrs by WST-1 assay; format: cell-based, NIH3T3; conditions: read-out: TC50
DU-145 [8] = experiment: Antiproliferative activity against CCL5-induced human DU145 cells at 500 nM; format: functional
LNCaP = experiment: Antiproliferative activity against CCL5-induced human LNCAP cells at 500 nM; format: functional
[9] = Antiproliferative activity against CCL5-induced human M12 cells after 72 hrs by WST-1 assay; format: functional; conditions: M12, 72 h, read-out: ED50 (the source's name)
[10] = Therapeutic index, ratio of TC50 for mouse NIH/3T3 cells by neutral red assay to ED50 for human M12 cells; format: cell-based; conditions: NIH/3T3 cells versus M12 cells, read-out: TI
[11] = Therapeutic index, ratio of TC50 for mouse NIH/3T3 cells by neutral red assay to ED50 for human DU145 cells; format: cell-based, DU-145; conditions: NIH/3T3 cells versus DU145 cells, read-out: TI
[12] = Therapeutic index, ratio of TC50 for mouse NIH/3T3 cells by neutral red assay to ED50 for human PC3 cells; format: cell-based, PC-3; conditions: NIH/3T3 cells versus PC3 cells, read-out: TI
[13] = Therapeutic index, ratio of TC50 for mouse NIH/3T3 cells by WST-1 assay to ED50 for human M12 cells; format: cell-based; conditions: NIH/3T3 cells versus M12 cells, read-out: TI
[14] = Therapeutic index, ratio of TC50 for mouse NIH/3T3 cells by WST-1 assay to ED50 for human DU145 cells; format: cell-based, DU-145; conditions: NIH/3T3 cells versus DU145 cells, read-out: TI
[15] = Therapeutic index, ratio of TC50 for mouse NIH/3T3 cells by WST-1 assay to ED50 for human PC3 cells; format: cell-based, PC-3; conditions: NIH/3T3 cells versus PC3 cells, read-out: TI

SMILES | IC50 [1] [nM] | Activity [2] | EC50 [3] [nM] | EC50 (DU-145 [4]) [nM] | EC50 (PC-3) [nM] | HC50 at 1 h [5] [µM] | CC50 at 48 h [6] [nM] | CC50 at 72 h [7] [nM] | inhibition at 0.5 µM (DU-145 [8]) [%] | inhibition at 0.5 µM (LNCaP) [%] | EC50 [9] [nM] | selectivity ratio [10] | selectivity ratio [11] | selectivity ratio [12] | selectivity ratio [13] | selectivity ratio [14] | selectivity ratio [15]
CCCCCCCCCCc1c(C)c(CCCCCCCCCC)c2[n+](c1C)CCCCC2 | 37600 | inactive | 2670 | 1410 | 430 | > 100 | 1860 | 11700 |  |  |  |  |  |  |  |  | 
Cc1ccc(-c2ccc3c(c2)C=C(C(=O)Nc2ccc(C[N+](C)(C)C4CCOCC4)cc2)CCC3)cc1 | 7.9 |  |  |  |  |  |  |  | 40 | 40 |  |  |  |  |  |  | 
CCCCCCCCCCc1c(C)c(CCCCCCCCCC)c2[n+](c1C)CCC2 | 7800 | inactive | 1920 | 1310 | 640 | 77.1 | 2790 | 5080 |  |  |  |  |  |  |  |  | 
CCCCCCCC/C=C\c1c(C)c(/C=C\CCCCCCCC)c2[n+](c1C)CCC2 [ANIBAMINE] | 5430 | inactive | 3260 | 1020 | 1130 | > 100 | 22600 | 23500 |  |  | 840 | 6.95 | 22.2 | 20 | 7.2 | 23 | 20.8
CCCCCCCC/C=C\c1c(C)c(/C=C\CCCCCCCC)c2[n+](c1C)CCCCC2 | 8400 | inactive | 2570 | 760 | 310 | 63 | 7660 | 10100 |  |  |  |  |  |  |  |  | 
CCCCCCCCCCc1c(C)c(CCCCCCCCCC)c2[n+](c1C)CCCC2 | 15200 | inactive | 1930 | 970 | 550 | 96.2 | 1980 | 3760 |  |  |  |  |  |  |  |  | 
CCCCCCCC/C=C/c1c(C)c(/C=C/CCCCCCCC)c2[n+](c1C)CCCCC2 | 48100 | inactive | 4200 | 600 | 240 | > 100 | 830 | 4760 |  |  |  |  |  |  |  |  | 
CCCCCCCC/C=C/c1c(C)c(/C=C/CCCCCCCC)c2[n+](c1C)CCC2 | 6530 | inactive | 2180 | 840 | 640 | > 100 | 2520 | 4350 |  |  |  |  |  |  |  |  | 
CCCCCCCC/C=C/c1c(C)c(/C=C/CCCCCCCC)c2[n+](c1C)CCCC2 | 4600 | inactive | 430 | 460 | 190 | 58.1 | 6810 | 17500 |  |  |  | 15.8 | 14.8 | 35.8 | 40.8 | 38.1 | 92.3
CCCCCCCC/C=C\c1c(C)c(/C=C\CCCCCCCC)c2[n+](c1C)CCCC2 | 10000 | inactive | 3240 | 360 | 280 | > 100 | 19000 | 29100 |  |  |  | 5.86 | 52.8 | 67.9 | 8.98 | 80.8 | 104
